Numbers after ± are expanded uncertainties.
Legend:
[1] = 101.3 kPa, Liquid; for speed of sound: Linear variable-path acoustic interferometer; for mass density: Pycnometric method
[2] = xn = mol fraction of the nth substance listed; conditions: 101 kPa, Liquid; for speed of sound: Linear variable-path acoustic interferometer; for mass density: Pycnometric method

C1CCOC1 [tetrahydrofuran]
[1]
Conditions	mass density [kg/m3]	speed of sound [m/s]
303.15 K	876.9 ± 0.3	1254 ± 2
313.15 K	865.7 ± 0.3	1207 ± 2
323.15 K	854.8 ± 0.3	1165 ± 2

C1CCOC1 [tetrahydrofuran] + CN(C)c1ccccc1
[2], x1 = 1
Conditions	mass density [kg/m3]	speed of sound [m/s]
303.15 K	876.9 ± 0.3	1254 ± 2
313.15 K	865.7 ± 0.3	1207 ± 2
323.15 K	854.8 ± 0.3	1165 ± 2

CN(C)c1ccccc1 [N,N-dimethylaniline] + C1CCOC1
[2]
Conditions	mass density, 303.15 K [kg/m3]	mass density, 313.15 K [kg/m3]	mass density, 323.15 K [kg/m3]	speed of sound, 303.15 K [m/s]	speed of sound, 313.15 K [m/s]	speed of sound, 323.15 K [m/s]
x2 = 0	948.4 ± 0.3	939.8 ± 0.3	931.5 ± 0.4	1468 ± 3	1431 ± 3	1393 ± 3
x2 = 0.0683	945.8 ± 0.3	937.5 ± 0.3	929.5 ± 0.4	1459 ± 3	1424 ± 3	1391 ± 3
x2 = 0.1883	940.8 ± 0.3	932.9 ± 0.3	925.2 ± 0.4	1439 ± 3	1408 ± 3	1376 ± 3
x2 = 0.2797	936.7 ± 0.3	928.6 ± 0.3	921.1 ± 0.4	1423 ± 3	1391 ± 3	1359 ± 3
x2 = 0.389	931 ± 0.3	922.9 ± 0.3	915.3 ± 0.4	1403 ± 3	1370 ± 3	1337 ± 3
x2 = 0.4723	926.2 ± 0.3	918 ± 0.3	910.2 ± 0.4	1387 ± 3	1354 ± 3	1319 ± 2
x2 = 0.5757	919.3 ± 0.3	911.1 ± 0.3	903 ± 0.4	1365 ± 3	1331 ± 3	1294 ± 2
x2 = 0.6813	910.9 ± 0.3	902.8 ± 0.3	894.4 ± 0.4	1340 ± 3	1304 ± 2	1267 ± 2
x2 = 0.7866	901.1 ± 0.3	893.2 ± 0.3	884.2 ± 0.4	1314 ± 2	1276 ± 2	1238 ± 2
x2 = 0.8909	890.1 ± 0.3	881.4 ± 0.3	871.7 ± 0.3	1287 ± 2	1246 ± 2	1206 ± 2

CN(C)c1ccccc1 [N,N-dimethylaniline] + CC(C)OC(C)C
[2]
Conditions	mass density, 303.15 K [kg/m3]	mass density, 313.15 K [kg/m3]	mass density, 323.15 K [kg/m3]	speed of sound, 303.15 K [m/s]	speed of sound, 313.15 K [m/s]	speed of sound, 323.15 K [m/s]
x2 = 0	948.4 ± 0.3	939.8 ± 0.3	931.5 ± 0.4	1468 ± 3	1431 ± 3	1393 ± 3
x2 = 0.0741	932.6 ± 0.3	924.8 ± 0.3	916.9 ± 0.4	1430 ± 3	1396 ± 3	1360 ± 3
x2 = 0.1589	914 ± 0.3	906.5 ± 0.3	898.6 ± 0.4	1385 ± 3	1353 ± 3	1318 ± 2
x2 = 0.2428	895.3 ± 0.3	887.5 ± 0.3	879.6 ± 0.4	1342 ± 3	1311 ± 2	1277 ± 2
x2 = 0.3355	874.3 ± 0.3	866.2 ± 0.3	858.3 ± 0.4	1296 ± 2	1262 ± 2	1229 ± 2
x2 = 0.4294	852.6 ± 0.3	844.2 ± 0.3	836.3 ± 0.4	1250 ± 2	1214 ± 2	1182 ± 2
x2 = 0.5338	827.8 ± 0.3	819.2 ± 0.3	811.5 ± 0.3	1199 ± 2	1161 ± 2	1128 ± 2
x2 = 0.6362	802.8 ± 0.3	794.1 ± 0.3	786.4 ± 0.3	1149 ± 2	1112 ± 2	1078 ± 2
x2 = 0.7466	775.2 ± 0.3	766.4 ± 0.3	758.5 ± 0.3	1096 ± 2	1059 ± 2	1024 ± 2
x2 = 0.8676	744.8 ± 0.3	735.7 ± 0.3	726.9 ± 0.3	1038 ± 2	1000 ± 2	961 ± 2

CC(C)OC(C)C [diisopropyl ether]
[1]
Conditions	mass density [kg/m3]	speed of sound [m/s]
303.15 K	712.9 ± 0.3	976 ± 2
313.15 K	702.5 ± 0.3	932 ± 2
323.15 K	691.9 ± 0.3	889 ± 2

CCN(CC)c1ccccc1 [N,N-diethylaniline]
[1]
Conditions	mass density [kg/m3]	speed of sound [m/s]
303.15 K	926.2 ± 0.3	1434 ± 3
313.15 K	917.6 ± 0.3	1396 ± 3
323.15 K	909.2 ± 0.4	1358 ± 3
